target: IRAK4 (Homo sapiens (Human), UniProt Q9NWZ3); experiment: IRAK4 Kinase Assay (IMAP fluorescence polarization); assay type: biochemical; conditions: 0.5 nM GST tagged IRAK4, 100 μM ATP, 100 nM fluorescent peptide substrate RP7030, 30 minutes at 25° C.
Experimental: The kinase activity of IRAK4 is determined by its ability to catalyze the phosphorylation of a fluorescent polypeptide substrate. The extent of phosphorylation is measured using the IMAP technology (Molecular Devices) where the phosphorylated fluorescent substrate binds to the large M(III)-based nanoparticles which reduces the rotational speed of the substrate and thus increases its fluorescent polarization (FP).
20 μL reaction mixture contains 10 mM TriHCl, pH 7.2, 0.5 nM GST tagged IRAK4 (SignalChem), 100 nM fluorescent peptide substrate (RP7030, Molecular Devices), 100 μM ATP, 1 mM DDT, 1 mM MgCl2, and 0.01% Tween 20. The reaction is initiated by the addition of ATP. After incubation for 30 minutes at 25° C., 60 μL of Progressive IMAP Reagent (Molecular Devices) is added to stop the reaction. Change in RP7030's FP is determined by a FP reader (Analyst HT, LJL BioSystems).

IRAK4, sequence (Q9NWZ3 whole entry): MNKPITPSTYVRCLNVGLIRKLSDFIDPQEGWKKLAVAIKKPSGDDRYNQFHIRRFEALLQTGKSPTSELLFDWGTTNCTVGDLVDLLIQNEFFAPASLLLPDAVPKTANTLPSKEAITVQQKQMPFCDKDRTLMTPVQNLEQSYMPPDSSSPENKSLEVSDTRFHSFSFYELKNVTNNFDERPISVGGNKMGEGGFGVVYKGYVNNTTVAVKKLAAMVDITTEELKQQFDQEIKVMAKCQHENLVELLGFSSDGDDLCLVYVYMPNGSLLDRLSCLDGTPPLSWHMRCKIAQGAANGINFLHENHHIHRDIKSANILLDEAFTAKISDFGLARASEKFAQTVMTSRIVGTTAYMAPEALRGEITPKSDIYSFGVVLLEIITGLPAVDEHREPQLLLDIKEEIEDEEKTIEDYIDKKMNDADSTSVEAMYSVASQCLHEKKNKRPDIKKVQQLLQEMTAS

| SMILES | IC50 [nM] |
| --- | --- |
| CN(C)C1CCC(Nc2ncnc3ccc(-c4ccccc4)cc23)CC1 (single isomer, unassigned) [Example 1-2, cis or trans-N,N-dimethyl-N′-(6-phenylquinazolin-4-yl)cyclohexane-1,4-diamine] | 3160 |
| CN(C)C1CCC(Nc2ncnc3ccc(-c4ccncc4)cc23)CC1 (single isomer, unassigned) [Example 1-3, cis or trans-N,N-dimethyl-N′-[6-(pyridin-4-yl)quinazolin-4-yl]cyclohexane-1,4-diamine] | 2290 |
| CN(C)C1CCC(Nc2ncnc3ccc(-c4cccnc4)cc23)CC1 (single isomer, unassigned) [Example 1-4, cis or trans-N,N-dimethyl-N′-[6-(pyridin-3-yl)quinazolin-4-yl]cyclohexane-1,4-diamine] | 1610 |
| CN(C)C1CCC(Nc2ncnc3ccc(-c4ccccc4)cc23)CC1 (single isomer, unassigned) [Example 1-5, cis or trans-N,N-dimethyl-N′-(6-phenylquinazolin-4-yl)cyclohexane-1,4-diamine] | 19 |
| CN(C)C1CCC(Nc2ncnc3ccc(-c4ccncc4)cc23)CC1 (single isomer, unassigned) [Example 1-6, cis or trans-N,N-dimethyl-N′-[6-(pyridin-4-yl)quinazolin-4-yl]cyclohexane-1,4-diamine] | 11 |
| CN(C)C1CCC(Nc2ncnc3ccc(-c4cccnc4)cc23)CC1 (single isomer, unassigned) [Example 1-7, cis or trans-N,N-dimethyl-N′-[6-(pyridin-3-yl)quinazolin-4-yl]cyclohexane-1,4-diamine] | 13 |
| Cc1cc(-c2ccc3ncnc(N[C@H]4CC[C@H](N(C)C)CC4)c3c2)cnn1 [Example 1-1, Trans-N,N-dimethyl-N′-[6-(6-methylpyridazin-4-yl)quinazolin-4-yl]cyclohexane-1,4-diamine] | 27 |
| COc1cc(-c2ccc3ncnc(N[C@H]4CC[C@H](N(C)C)CC4)c3c2)ccn1 [Example 1-8, trans-N′-[6-(2-methoxypyridin-4-yl)quinazolin-4-yl]-N,N-dimethylcyclohexane-1,4-diamine] | 25 |
| Cn1cc(-c2ccc3ncnc(N[C@H]4CC[C@H](N(C)C)CC4)c3c2)cn1 [Example 1-9, trans-N,N-dimethyl-N′-[6-(1-methyl-1H-pyrazol-4-yl)quinazolin-4-yl]cyclohexane-1,4-diamine] | 5 |
| CN(C)C1CCC(Nc2ncnc3ccc(-c4cn[nH]c4)cc23)CC1 (stereo not drawn) [Example 1-10, cis or trans-N,N-dimethyl-N′-[6-(1H-pyrazol-4-yl)quinazolin-4-yl]cyclohexane-1,4-diamine] | 1 |
| CN(C)C1CCC(Nc2ncnc3ccc(-c4ccc(N)nc4)cc23)CC1 (stereo not drawn) [Example 1-11, cis or trans-N′-[6-(6-aminopyridin-3-yl)quinazolin-4-yl]-N,N-dimethylcyclohexane-1,4-diamine] | 36 |
| CN(C)[C@H]1CC[C@H](Nc2ncnc3ccc(-c4cc[nH]n4)cc23)CC1 [Example 1-12, trans-N,N-dimethyl-N′-[6-(1H-pyrazol-3-yl)quinazolin-4-yl]cyclohexane-1,4-diamine] | 17 |
| CNc1ncc(-c2ccc3ncnc(N[C@H]4CC[C@H](N(C)C)CC4)c3c2)cn1 [Example 1-13, trans-N,N-dimethyl-N′-{6-[2-(methylamino)pyrimidin-5-yl]quinazolin-4-yl}cyclohexane-1,4-diamine] | 28 |
| CCOC(C)n1cc(-c2ccc3ncnc(N[C@H]4CC[C@H](N(C)C)CC4)c3c2)cn1 (stereo partly drawn) [Example 1-14, trans-N′-{6-[1-(1-ethoxyethyl)-1H-pyrazol-4-yl]quinazolin-4-yl}-N,N-dimethylcyclohexane-1,4-diamine] | 1360 |
| CN(C)[C@H]1CC[C@H](Nc2ncnc3ccc(-c4cnn(CCN5CCOCC5)c4)cc23)CC1 [Example 1-15, trans-N,N-dimethyl-N′-(6-{1-[2-(morpholin-4-yl)ethyl]-1H-pyrazol-4-yl}quinazolin-4-yl)cyclohexane-1,4-diamine] | 1320 |
| CN(C)[C@H]1CC[C@H](Nc2ncnc3ccc(-c4cnn(C5CCCCO5)c4)cc23)CC1 (stereo partly drawn) [Example 1-16, trans-N,N-dimethyl-N′-{6-[1-(tetrahydro-2H-pyran-2-yl)-1H-pyrazol-4-yl]quinazolin-4-yl}cyclohexane-1,4-diamine] | 217 |
| CN(C)[C@H]1CC[C@H](Nc2ncnc3ccc(-c4cnn(Cc5ccccn5)c4)cc23)CC1 [Example 1-17, trans-N,N-dimethyl-N′-{6-[1-(pyridin-2-ylmethyl)-1H-pyrazol-4-yl]quinazolin-4-yl}cyclohexane-1,4-diamine] | 372 |
| CCn1cc(-c2ccc3ncnc(N[C@H]4CC[C@H](N(C)C)CC4)c3c2)cn1 [Example 1-18, trans-N′-[6-(1-ethyl-1H-pyrazol-4-yl)quinazolin-4-yl]-N,N-dimethylcyclohexane-1,4-diamine] | 92 |

| SMILES | IC50 [nM] |
| --- | --- |
| CN(C)[C@H]1CC[C@H](Nc2ncnc3ccc(-c4cnn(Cc5ccncc5)c4)cc23)CC1 [Example 1-19, trans-N,N-dimethyl-N′-{6-[1-(pyridin-4-ylmethyl)-1H-pyrazol-4-yl]quinazolin-4-yl}cyclohexane-1,4-diamine] | 358 |
| CN(C)[C@H]1CC[C@H](Nc2ncnc3ccc(-c4ccncc4C#N)cc23)CC1 [Example 1-20, 4-(4-{[trans-4-(dimethylamino)cyclohexyl]amino}quinazolin-6-yl)pyridine-3-carbonitrile] | 85 |
| Cc1cnccc1-c1ccc2ncnc(N[C@H]3CC[C@H](N(C)C)CC3)c2c1 [Example 1-21, trans-N,N-dimethyl-N′-[6-(3-methylpyridin-4-yl)quinazolin-4-yl]cyclohexane-1,4-diamine] | 155 |
| CN(C)[C@H]1CC[C@H](Nc2ncnc3ccc(-c4cnccc4C#N)cc23)CC1 [Example 1-22, 3-(4-{[trans-4-(dimethylamino)cyclohexyl]amino}quinazolin-6-yl)pyridine-4-carbonitrile] | 54 |
| CN(C)[C@H]1CC[C@H](Nc2ncnc3ccc(-c4cncc(N5CCOCC5)c4)cc23)CC1 [Example 1-23, trans-N,N-dimethyl-N′-{6-[5-(morpholin-4-yl)pyridin-3-yl]quinazolin-4-yl}cyclohexane-1,4-diamine] | 498 |
| Cc1noc(C)c1-c1ccc2ncnc(N[C@H]3CC[C@H](N(C)C)CC3)c2c1 [Example 1-24, trans-N′-[6-(3,5-dimethylisoxazol-4-yl)quinazolin-4-yl]-N,N-dimethylcyclohexane-1,4-diamine] | 333 |
| CN(C)[C@H]1CC[C@H](Nc2ncnc3ccc(-c4cncnc4)cc23)CC1 [Example 1-25, trans-N,N-dimethyl-N′-[6-(pyrimidin-5-yl)quinazolin-4-yl]cyclohexane-1,4-diamine] | 3 |
| Cc1onc(-c2ccccc2)c1-c1ccc2ncnc(N[C@H]3CC[C@H](N(C)C)CC3)c2c1 [Example 1-26, trans-N,N-dimethyl-N′-[6-(5-methyl-3-phenylisoxazol-4-yl)quinazolin-4-yl]cyclohexane-1,4-diamine] | 698 |
| CN(C)[C@H]1CC[C@H](Nc2ncnc3ccc(-c4ccc(C#N)nc4)cc23)CC1 [Example 1-27, 5-(4-{[trans-4-(dimethylamino)cyclohexyl]amino}quinazolin-6-yl)pyridine-2-carbonitrile] | 43 |
| CN(C)[C@H]1CC[C@H](Nc2ncnc3ccc(-c4ccc(O)nc4)cc23)CC1 [Example 1-28, 5-(4-{[trans-4-(dimethylamino)cyclohexyl]amino}quinazolin-6-yl)pyridin-2-ol] | 7 |
| CN(C)[C@H]1CC[C@H](Nc2ncnc3ccc(-c4cnc(N)nc4)cc23)CC1 [Example 1-29, trans-N′-[6-(2-aminopyrimidin-5-yl)quinazolin-4-yl]-N,N-dimethylcyclohexane-1,4-diamine] | 19 |
| Cc1ccc(-c2ccc3ncnc(N[C@H]4CC[C@H](N(C)C)CC4)c3c2)cn1 [Example 1-30, trans-N,N-dimethyl-N′-[6-(6-methylpyridin-3-yl)quinazolin-4-yl]cyclohexane-1,4-diamine] | 42 |
| COC(=O)c1cncc(-c2ccc3ncnc(N[C@H]4CC[C@H](N(C)C)CC4)c3c2)c1 [Example 1-31, methyl 5-(4-{[trans-4-(dimethylamino)cyclohexyl]amino}quinazolin-6-yl)pyridine-3-carboxylate] | 45 |
| CN(C)[C@H]1CC[C@H](Nc2ncnc3ccc(-c4cnoc4)cc23)CC1 [Example 1-32, trans-N′-[6-(isoxazol-4-yl)quinazolin-4yl]-N,N-dimethylcyclohexane-1,4-diamine] | 9 |
| CN(C)[C@H]1CC[C@H](Nc2ncnc3ccc(-c4cnc(O)nc4)cc23)CC1 [Example 1-33, 5-(4-{[trans-4-(dimethylamino)cyclohexyl]amino}quinazolin-6-yl)pyrimidin-2-ol] | 9 |
| CN(C)[C@H]1CC[C@H](Nc2ncnc3ccc(-c4ccncc4F)cc23)CC1 [Example 1-34, trans-N′-[6-(3-fluoropyridin-4-yl)quinazolin-4-yl]-N,N-dimethylcyclohexane-1,4-diamine] | 11 |
| COc1ccncc1-c1ccc2ncnc(N[C@H]3CC[C@H](N(C)C)CC3)c2c1 [Example 1-35, trans-N′-[6-(4-methoxypyridin-3-yl)quinazolin-4-yl]-N,N-dimethylcyclohexane-1,4-diamine] | 394 |

From US9969749B2, “Inhibitors of IRAK4 activity” (MERCK SHARP & DOHME CORP., priority 2014, dated 2018)
